According to patent US20260138976A1 (Hoffmann-La Roche Inc., priority 2022, published 2026):

Assays:
[1] = molecular target: T1, DGK ζ kinase (Homo sapiens, UniProt Q13574); assay: DGKzeta kinase ADP Glo assay run by Reaction Biology Corp.; assay type: biochemical; conditions: 2 nM kinase, 50 µM ATP, 500 μM DLG, 10-dose duplicate
T1 construct: purchased Reaction Biology Corp. (contract assay service)
Method: DGK α and ζ kinases use ATP to phosphorylate the substrate 1,2-dilauroyl-sn-glycerol (DLG). ATP is converted to ADP as a result of this enzymatic reaction.
After the kinase reaction, an ATP-depletion reagent is added to terminate the kinase reaction and deplete any remaining ATP, leaving only ADP. Second, a detection reagent is added to simultaneously convert ADP to ATP and allow the newly synthesized ATP to be converted to light using a coupled luciferase/luciferin reaction.
DGK α and ζ kinase ADP Glo assays were ran by Reaction Biology Corp., 1 Great Valley Parkway, Suite 2, Malvern, 19355, PA, USA. Information provided by the service provider are the following: DGK α and ζ kinases were used at 2 nM final concentration. Reactions were carried out at 50 µM ATP. 500 μM of the substrate DLG (Dilauroyl-sn-glycerol) was used.

[2] = system: MV-3 cells; assay: T-cell - TCB - MV3 killing assay; assay type: cell-based, human; conditions: for Emax: Homo sapiens, MV-3, 120 h, % TCL normalized: MCSP-TCB only = neutral control, 20 μM reference compound A1 = 100%, read-out: MSCP TCB killing MV-3 cells 5 d Emax (%); for EC50: primary human T-cells + MV-3 RFP cells, MCSP-TCB 1.5 pM-5 pM, 120 hours imaging, read-out: MSCP TCB killing MV-3 cells 5 d EC50
Method: All culturing steps are executed at 5% CO2, 37° C. and 95% humidity. MV-3 RFP cells are cultured in MV-3 medium (DMEM+10% FBS, 1× PenStrep and 0.5 μg/mL Puromycin) for at least 3 weeks. Cultured MV-3 cells at 80% confluency are washed once with PBS−− and trypsinized until detached. […] Cells are seeded with 100 μL/well into a 96-well plate (TTP, #92696), and placed for 40 minutes without moving at room temperature in order to achieve evenly distributed attachment of cells. Plates are then incubated until further use.
On the next day, expanded primary human T-cells are thawed and resuspended in T-cell medium to 4*10^6 cells/mL. For 3 hours, they are cultured in a 6-well plate with 6 mL per well at maximum. After culturing the T-cells, they are filtered through a cell strainer (Miltenyi Biotech, #130-041-407), counted again, and cell concentration is adjusted to 2*10^6 cells/mL.
MCSP-TCB or PBS are pre-diluted in T-cell medium (concentration depending on T-cell donor), 4 times more concentrated than the end-concentration. 60 μL/well of pre-dilutions are then distributed into a round bottom plate (Costar, #3799) according to plate layout. Compounds are added in a 9 pt dose response with the Tecan D300e Digital Dispenser, as well 4 times more concentrated than the end-concentration. DMSO concentration of all wells is adjusted to 0.8%, resulting in 0.2% as final concentration.
60 μL per well of T-cell suspension are added to the prepared round bottom plate and resuspended with a manual multichannel. 100 μL/well of the resuspended T-cell suspension including treatments are then transferred cautiously to the over-night cultured MV-3 cells according to plate layout. 100 μL T-cell medium only is added to the outer MV-3 wells only. Final compound DR is starting at 20 μM with a dilution factor of 3.333. Final TCB concentration is between 1.5 pM to 5 pM and was determined for each T-cell donor individually by running TCB titrations. For each donor, a TCB concentration was chosen which corresponds to 10-20% MV3 baseline cell killing in the absence of compound treatment. Positive control is the reference compound A1 which is added in a DR, as well as additional wells with only 20 μM. 20 μM of reference compound A1 represent the positive stimulator control, TCB only (DMSO wells) the neutral control.
After transfer of T-cells with treatment pre-dilutions, MV-3 cells are imaged by time-lapse microscopy using IncucyteZOOM™ (Essen BioScience, MI, USA). Imaging is performed every 3 hours for a total of 120 hours (10× objective, phase and red image channels, acquisition time 400 ms, Green/Red 4614 optical module). RFP object count per well is analysed in the IncucyteZOOM™ Software (Version 2019B Rev2) with a mask that was previously created and optimized for MV-3 cells. Raw data is exported as object count/well and values are normalized as % TCL compared to wells with MV-3 only, representing 100% growth and therefore 0% TCL.
Calculated % TCL values are analysed in Genedata Screener using Roche Normalization PCT_POS_CTRL with MCSP-TCB only set as Neutral Control and 20 μM of the reference compound A1 set as Stimulator Control/100%.
Induced TCL by compounds without TCB treatment or toxicity (observed in the PBS condition) were be flagged.

T1 sequence (Q13574 whole entry): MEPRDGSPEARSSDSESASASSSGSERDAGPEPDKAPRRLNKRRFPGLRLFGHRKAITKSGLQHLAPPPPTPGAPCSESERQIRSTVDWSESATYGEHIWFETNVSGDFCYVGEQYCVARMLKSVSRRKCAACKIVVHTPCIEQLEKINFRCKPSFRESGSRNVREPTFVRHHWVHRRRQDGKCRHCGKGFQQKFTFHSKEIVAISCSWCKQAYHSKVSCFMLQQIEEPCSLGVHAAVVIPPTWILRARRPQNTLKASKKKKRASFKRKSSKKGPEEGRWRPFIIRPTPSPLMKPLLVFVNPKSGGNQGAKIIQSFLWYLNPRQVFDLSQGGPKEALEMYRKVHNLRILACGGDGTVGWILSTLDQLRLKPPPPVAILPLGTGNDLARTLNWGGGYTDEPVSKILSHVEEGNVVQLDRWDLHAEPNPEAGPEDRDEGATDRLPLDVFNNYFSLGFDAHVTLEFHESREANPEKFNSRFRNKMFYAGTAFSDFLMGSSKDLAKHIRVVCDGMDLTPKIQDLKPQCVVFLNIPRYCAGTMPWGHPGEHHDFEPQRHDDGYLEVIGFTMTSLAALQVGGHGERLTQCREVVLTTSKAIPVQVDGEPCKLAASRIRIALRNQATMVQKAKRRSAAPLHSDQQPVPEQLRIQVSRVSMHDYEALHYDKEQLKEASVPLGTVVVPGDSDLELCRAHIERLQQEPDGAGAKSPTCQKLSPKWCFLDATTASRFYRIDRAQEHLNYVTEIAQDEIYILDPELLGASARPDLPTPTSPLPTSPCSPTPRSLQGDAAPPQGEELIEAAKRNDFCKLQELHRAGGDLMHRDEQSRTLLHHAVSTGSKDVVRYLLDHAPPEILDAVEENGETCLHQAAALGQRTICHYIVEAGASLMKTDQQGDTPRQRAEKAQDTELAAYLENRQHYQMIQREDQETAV

| IC50 [1] [nM] | Compound | Emax [2] [%] | EC50 [2] [nM] |
| --- | --- | --- | --- |
| 439 | Cc1noc(-c2ccc(CN3C(=O)[C@@H](N)CS(=O)(=O)c4ccc(-c5nnc(C(C)(C)C)o5)cc43)cc2)n1 [Example 20, (3R)-3-amino-7-(5-tert-butyl-1,3,4-oxadiazol-2-yl)-5-[[4-(3-methyl-1,2,4-oxadiazol-5-yl)phenyl]methyl]-1,1-dioxo-2,3-dihydro-1λ^6,5-benzothiazepin-4-one] | – | – |
| 71.3 | CC(C)(C#N)c1nnc(-c2ccc3c(c2)N(Cc2ccc(-c4ccc(C(F)(F)F)cn4)cc2)C(=O)[C@@H](N)CS3(=O)=O)o1 [Example 47] | 103 | 280 |
| 92.8 | C[C@](N)(c1nnc(-c2ccc3c(c2)N(Cc2ccc(-c4noc(C(F)(F)F)n4)cc2)C(=O)[C@@H](N)CS3(=O)=O)o1)C(F)(F)F [Example 53, (3R)-3-amino-7-[5-[(1S)-1-amino-2,2,2-trifluoro-1-methyl-ethyl]-1,3,4-oxadiazol-2-yl]-1,1-dioxo-5-[[4-[5-(trifluoromethyl)-1,2,4-oxadiazol-3-yl]phenyl]methyl]-2,3-dihydro-1λ^6,5-benzothiazepin-4-one] | 98 | 137 |
| 56.7 | CC(C)(C#N)c1nnc(-c2ccc3c(c2)N(Cc2ccc(-c4ccc(OC(F)(F)F)cn4)cc2)C(=O)[C@@H](N)CS3(=O)=O)o1 [Example 124] | 100 | 23 |

More lines, now with the values behind:

| Compound | IC50 [1] [nM] | Emax [2] [%] | EC50 [2] [nM] |
| --- | --- | --- | --- |
| C[C@@](N)(c1nnc(-c2ccc3c(c2)N(Cc2ccc(-c4noc(C(F)(F)F)n4)cc2)C(=O)[C@@H](N)CS3(=O)=O)o1)C(F)(F)F [Example 52, (3R)-3-amino-7-[5-[(1R)-1-amino-2,2,2-trifluoro-1-methyl-ethyl]-1,3,4-oxadiazol-2-yl]-1,1-dioxo-5-[[4-[5-(trifluoromethyl)-1,2,4-oxadiazol-3-yl]phenyl]methyl]-2,3-dihydro-1λ^6,5-benzothiazepin-4-one] | 101 | 95 | 52 |
| N[C@H]1CS(=O)(=O)c2ccc(-c3nnc(N4CCOC(F)(F)C4)o3)cc2N(Cc2ccc(-c3noc(C(F)(F)F)n3)cc2)C1=O [Example 78, (3R)-3-amino-7-[5-(2,2-difluoromorpholin-4-yl)-1,3,4-oxadiazol-2-yl]-1,1-dioxo-5-[[4-[5-(trifluoromethyl)-1,2,4-oxadiazol-3-yl]phenyl]methyl]-2,3-dihydro-1λ^6,5-benzothiazepin-4-one] | 25.4 | 112 | 93 |
| COc1ccc(-c2ccc(CN3C(=O)[C@@H](N)CS(=O)(=O)c4ccc(-c5nnc(N(C)CC(F)(F)F)o5)cc43)cc2)cc1 [Example 81, (3R)-3-amino-5-[[4-(4-methoxyphenyl)phenyl]methyl]-7-[5-[methyl(2,2,2-trifluoroethyl)amino]-1,3,4-oxadiazol-2-yl]-1,1-dioxo-2,3-dihydro-1λ^6,5-benzothiazepin-4-one] | 53.5 | 98 | 343 |
| CC(C)(C)c1nnc(-c2ccc3c(c2)N(Cc2ccc(-n4cnc(C(F)(F)F)n4)cc2)C(=O)[C@@H](N)CS3(=O)=O)o1 [Example 91, (3R)-3-amino-7-(5-tert-butyl-1,3,4-oxadiazol-2-yl)-1,1-dioxo-5-[[4-[3-(trifluoromethyl)-1,2,4-triazol-1-yl]phenyl]methyl]-2,3-dihydro-126,5-benzothiazepin-4-one] | – | 96 | 237 |
| CC(C)(C#N)c1nnc(-c2ccc3c(c2)N(Cc2ccc(-n4ccc(C(F)(F)F)n4)cc2)C(=O)[C@@H](N)CS3(=O)=O)o1 [Example 121, 2-[5-[(3R)-3-amino-1,1,4-trioxo-5-[[4-[3-(trifluoromethyl)pyrazol-1-yl]phenyl]methyl]-2,3-dihydro-1λ^6,5-benzothiazepin-7-yl]-1,3,4-oxadiazol-2-yl]-2-methyl-propanenitrile] | – | 98 | 109 |
| C[C@@](N)(c1nnc(-c2ccc3c(c2)N(Cc2ccc(-n4ccc(C(F)(F)F)n4)cc2)C(=O)[C@@H](N)CS3(=O)=O)o1)C(F)(F)F [Example 157, (3R)-3-amino-7-[5-[(1R)-1-amino-2,2,2-trifluoro-1-methyl-ethyl]-1,3,4-oxadiazol-2-yl]-1,1-dioxo-5-[[4-[3-(trifluoromethyl)pyrazol-1-yl]phenyl]methyl]-2,3-dihydro-1λ^6,5-benzothiazepin-4-one] | – | 100 | 119 |
| COC(=O)N1CC2CC(c3nnc(-c4ccc5c(c4)N(Cc4ccc(-c6ccc(C(F)(F)F)cn6)cc4)C(=O)[C@@H](N)CS5(=O)=O)o3)(C2)C1 [Example 159, methyl 1-[5-[(3R)-3-amino-1,1,4-trioxo-5-[[4-[5-(trifluoromethyl)-2-pyridyl]phenyl]methyl]-2,3-dihydro-1λ^6,5-benzothiazepin-7-yl]-1,3,4-oxadiazol-2-yl]-3-azabicyclo[3.1.1]heptane-3-carboxylate] | – | 102 | 166 |
| CC(C)(c1nnc(-c2ccc3c(c2)N(Cc2ccc(-c4noc(C(F)(F)F)n4)cc2)C(=O)[C@@H](N)CS3(=O)=O)o1)C(F)(F)F [Example 166] | – | 102 | 10 |
